Values of other authors as cited in patent publication US20230210762A1, “TRANSDERMAL DRUG DELIVERY DEVICES HAVING PSILOCYBIN, LYSERGIC ACID DI[…] 3,4-METHYLENEDIOXYMETHA[…] MICROPROTRUSIONS” (Emergex USA Corporation, priority 2020, published 2023).
Where two headings read alike, the source gives them in different places.

Assays:
[1] = psilocybin administered orally to rats
[2] = not given; remark: listed apart in the source
[3] = not given; remark: listed apart in the source

SMILES | time until psilocin is detectable in plasma (after administration of the parent compound psilocybin) [min] | time to maximum plasma levels [1] | total volume of psilocin absorbed from the digestive tract [1] | ingested psilocybin absorbed through the stomach and intestine ([2]; oral, studies in animals) | detected in urine, time after ingestion ([2]; urine) [days] | time within which most of the drug is eliminated ([2]; via urine, bile and feces) [h] | absorbed psilocybin excreted in the bile and feces ([2]; within 24 hours) | absorbed psilocybin excreted into the urine ([2]; within 24 hours) | solubility in water [3] | half-life (administered intravenously) [h] | half-life (administered orally) [h] | bioavailability (psilocybin ingested orally)
CN(C)CCc1c[nH]c2cccc(O)c12 [psilocin] | ≤ 20 | approximately 90 minutes | approximately 50% |  |  |  |  |  |  |  |  | 
CN(C)CCc1c[nH]c2cccc(OP(=O)(O)O)c12 [psilocybin, 3-[2-(demethylamino)ethyl-1H-indol-4-yl] dihydrogen phosphate] |  |  |  | about 50% | 7 | ≤ 8 | 15-20% | about 65% | soluble | 1.24 ± 0.327 | 2.72 ± 1.07 | about 50%
